Starred links: 1 amine or outer side, 2 acyl side, 3 side chain; linkers in the order of their positions; H or OH if unused. Non-standard residues stand in square brackets, D forms with d. Residues, ends and D or L forms follow the SMILES beside them. *: point of attachment. NPrTuv(OPr) = CCCO[C@H](C[C@H](C(C)C)N(CCC)[*:1])c1nc(C(=O)[*:2])cs1; Hexanoyl(6-maleimido) = O=C1C=CC(=O)N1CCCCCC(=O)*; X1 = C[C@@H](C[C@H](Cc1ccccc1)N*)C(=O)O; PABC = O=C(OCc1ccc(N[*:1])cc1)[*:2]; NMeI = CC[C@H](C)[C@H](NC)C(=O)O; Cit = NC(=O)NCCC[C@H](N)C(=O)O Where only a bound is given, the exact number is not on record here.

Common to all, as to format: cell-based
The subject of one assay is BT474. The assay is described as follows: cytotoxic activity, IC50 against BT474 cells. The settings on record: Homo sapiens; BT474 / BT-474 cells.
The next assay deals with SKBR3. Nature of the assay: cytotoxic activity, IC50 against SKBR3 cells. The note with it: Homo sapiens, SK-BR-3.
Another assay has as its system HT29. The assay is described as follows: cytotoxic activity, IC50 against HT29 cells. The note with it: Homo sapiens; HT29 / HT-29 cells.
The test system of the next assay is MDA-MB-468. The assay is described as follows: cytotoxic activity, IC50 against MDA-MB-468 cells. The settings on record: Homo sapiens.
The next assay has as its system HEK293. The assay is described as follows: cytotoxic activity, IC50 against HEK293 cells. The note with it: Homo sapiens.
The next assay deals with SK-N-MC. The assay is described as follows: cytotoxic activity, IC50 against SK-N-MC cells. The note with it: Homo sapiens.
Another assay deals with MCF7. The assay is described as follows: cytotoxic activity, IC50 against MCF7 cells. The settings on record: Homo sapiens; MCF7 / MCF-7 cells.
In the next assay the test system is T47D. The assay is described as follows: cytotoxic activity, IC50 against T47D cells. The note with it: Homo sapiens; T47D / T-47D cells.
A short description of assay [1]: IC50 as ADC with Herceptin and DAR 2. The note with it: compound conjugated to Herceptin, DAR 2; cell line not given.
The subject of a further assay is HT1080. The assay is described as follows: cytotoxic activity, IC50 against HT1080 cells. The settings on record: Homo sapiens, HT-1080.
The subject of the next assay is NCl-H1299. The assay is described as follows: cytotoxic activity, IC50 against NCl-H1299 cells.
In the next assay the test system is A2780. Nature of the assay: cytotoxic activity, IC50 against A2780 cells. The settings on record: Homo sapiens.

With `CCCO[C@H](C[C@H](C(C)C)N(CCC)C(=O)[C@@H](NC(=O)[C@H]1CCCCN1)[C@@H](C)CC)c1nc(C(=O)N[C@@H](Cc2ccc(O)cc2)C[C@H](C)C(=O)O)cs1` [TAM334], the IC50 was 5.2 nM with BT474, 5.4 nM in the assay with SKBR3 and 12.3 nM in the assay on HT29.

With `CCCO[C@H](C[C@H](C(C)C)N(CCC)C(=O)[C@@H](NC(=O)[C@H]1CCCCN1C)[C@@H](C)CC)c1nc(C(=O)N[C@@H](Cc2ccc(OCCNC)cc2)C[C@H](C)C(=O)O)cs1` [TAM365], the IC50 worked out at 3.41 nM with MDA-MB-468, 0.99 nM in the assay on HEK293 and 0.92 nM in the assay with SK-N-MC.

As for `CCCO[C@H](C[C@H](C(C)C)N(CCC)C(=O)[C@@H](NC(=O)[C@H]1CCCCN1C)[C@@H](C)CC)c1nc(C(=O)N[C@@H](Cc2ccc(OC(=O)NCCOCCOCCN)cc2)C[C@H](C)C(=O)O)cs1` [TAM371], the results for the IC50 in the assay with MDA-MB-468, in the assay on HEK293 and in the assay with SK-N-MC were 0.13 nM, 0.1 nM and under 0.01 nM, respectively.

For the molecule `CCCO[C@H](C[C@H](C(C)C)N(CCC)C(=O)[C@@H](NC(=O)[C@H]1CCCCN1C)[C@@H](C)CC)c1nc(C(=O)N[C@@H](Cc2ccc(O)cc2)C[C@H](C)C(=O)NNC(=O)OCCOCCOCCN)cs1` [TAM375], the IC50 is 25.8 nM in the assay with MDA-MB-468, 34.6 nM in the assay on HEK293 and 18.8 nM in the assay with SKBR3.

In the case of `CCCO[C@H](C[C@H](C(C)C)N(CCC)C(=O)[C@@H](NC(=O)[C@H]1CCCCN1C)[C@@H](C)CC)c1nc(C(=O)N[C@@H](Cc2ccc(O)cc2)C[C@H](C)C(=O)NNC(=O)OCCOCCN=[N+]=[N-])cs1` [TAM426], the IC50 turned out to be 1.71 nM with MDA-MB-468, 1.33 nM in the assay on MCF7 and 2 nM with T47D.

In the case of `CCCO[C@H](C[C@H](C(C)C)N(CCC)C(=O)[C@@H](NC(=O)[C@H]1CCCCN1C)[C@@H](C)CC)c1nc(C(=O)N[C@@H](Cc2ccc(O)cc2)C[C@H](C)C(=O)NNC(=O)OCCOCCN)cs1` [TAM428], the IC50 with MDA-MB-468 was 16.8 nM; in the assay with MCF7, 20.6 nM; in the assay on T47D, 32 nM; in assay [1] it was 0.219 nM.

`CCCO[C@H](C[C@H](C(C)C)N(CCC)C(=O)[C@@H](NC(=O)[C@H]1CCCCN1C)[C@@H](C)CC)c1nc(C(=O)N[C@@H](Cc2ccc(OCCCCN)cc2)C[C@H](C)C(=O)O)cs1` [TAM486]: the IC50 in the assay with BT474 is 50.9 nM; in the assay with MDA-MB-468, 81.5 nM; in the assay with MCF7, 57.5 nM; in the assay with T47D, 142 nM; in the assay on SK-N-MC, 48.5 nM.

`CCCO[C@H](C[C@H](C(C)C)N(CCC)C(=O)[C@@H](NC(=O)[C@@H](NC)[C@@H](C)CC)[C@@H](C)CC)c1nc(C(=O)N[C@@H](Cc2ccccc2)C[C@H](C)C(=O)O)cs1` [TAM491]: the IC50 with BT474 turned out to be 1.84 nM; in the assay on MDA-MB-468 it was 2.68 nM; in the assay on MCF7, 1.77 nM; in the assay on SK-N-MC it was 4.57 nM.

Take `CCCO[C@H](C[C@H](C(C)C)N(CCC)C(=O)[C@@H](NC(=O)[C@H](CC(C)C)NC)[C@@H](C)CC)c1nc(C(=O)N[C@@H](Cc2ccccc2)C[C@H](C)C(=O)OC)cs1` [TAM496]: the IC50 in the assay on BT474 was found to be 95.2 nM; in the assay on MDA-MB-468, 214 nM; in the assay with MCF7, 103 nM; in the assay with SK-N-MC, 300 nM.

With `CCCO[C@H](C[C@H](C(C)C)N(CCC)C(=O)[C@@H](NC(=O)[C@H](CC(C)C)NC)[C@@H](C)CC)c1nc(C(=O)N[C@@H](Cc2ccccc2)C[C@H](C)C(=O)O)cs1` [TAM497], the IC50 in the assay with BT474 was 50 nM; in the assay with MDA-MB-468 it was 85.6 nM; in the assay with MCF7 it was 64.3 nM; in the assay with SK-N-MC it was 83.3 nM.

In the case of `CCCO[C@H](C[C@H](C(C)C)N(CCC)C(=O)[C@@H](NC(=O)[C@H]([C@@H](C)CC)N(C)C)[C@@H](C)CC)c1nc(C(=O)N[C@@H](Cc2ccccc2)C[C@H](C)C(=O)OC)cs1` [TAM521], the IC50 in the assay with BT474 worked out at 4.07 nM; in the assay on MDA-MB-468, 20 nM; in the assay with MCF7 it was 6.74 nM; in the assay with SK-N-MC, 15.3 nM.

Regarding `CCCO[C@H](C[C@H](C(C)C)N(CCC)C(=O)[C@@H](NC(=O)[C@H]([C@@H](C)CC)N(C)C)[C@@H](C)CC)c1nc(C(=O)N[C@@H](Cc2ccccc2)C[C@H](C)C(=O)O)cs1` [TAM522], the IC50 in the assay with BT474 was determined as 0.98 nM; in the assay with MDA-MB-468 it was 2 nM; with SK-N-MC, 1.54 nM.

As to `CCCO[C@H](C[C@H](C(C)C)N(CCC)C(=O)[C@@H](NC(=O)[C@H]1CCCCN1C)[C@@H](C)CC)c1nc(C(=O)N[C@@H](Cc2ccccc2)C[C@H](C)C(=O)NNC(=O)OCCOCCN)cs1` [TAM523], the IC50 came to 65 nM in the assay on BT474, 221 nM with MDA-MB-468, 92.1 nM with MCF7 and 150 nM in the assay with SK-N-MC.

Regarding `CCCO[C@H](C[C@H](C(C)C)N(CCC)C(=O)[C@@H](NC(=O)[C@H]([C@@H](C)CC)N(C)C(=O)OCc1ccc(NC(=O)[C@H](CCCNC(N)=O)NC(=O)[C@@H](NC(=O)CCCCCN2C(=O)C=CC2=O)C(C)C)cc1)[C@@H](C)CC)c1nc(C(=O)N[C@@H](Cc2ccccc2)C[C@H](C)C(=O)O)cs1` [TAM551] ({Hexanoyl(6-maleimido)}-V[Cit][PABC][NMeI]I[NPrTuv(OPr)]-X1), the IC50 in the assay on HT1080 was 90 nM.

In turn, `CCCO[C@H](C[C@H](C(C)C)N(CCC)C(=O)[C@@H](NC(=O)[C@H]1CCCCN1C)[C@@H](C)CC)c1nc(C(=O)N[C@@H](Cc2ccc(O)cc2)C[C@H](C)C(=O)NNC(=O)OCCOCCOCCOCCNC(=O)CCCCCN2C(=O)C=CC2=O)cs1` [TAM552] came in with an IC50 in the assay with HT1080 of 10 nM.

With `CCCO[C@H](C[C@H](C(C)C)N(CCC)C(=O)[C@@H](NC(=O)[C@H]1CCCCN1C)[C@@H](C)CC)c1nc(C(=O)N[C@@H](Cc2ccc(O)cc2)C[C@H](C)C(=O)NCCOCCOCCOCCOCCOCCOCCN)cs1` [TAM597], the IC50 in assay [1] is 0.172 nM.

With `CCCO[C@H](C[C@H](C(C)C)N(CCC)C(=O)[C@@H](NC(=O)[C@@H](NC)[C@@H](C)CC)[C@@H](C)CC)c1nc(C(=O)N[C@@H](Cc2ccc(O)cc2)C[C@H](C)C(=O)OC)cs1` [TAM598], the IC50 came to 5.15 nM in the assay with MDA-MB-468, 4.39 nM in the assay with MCF7, 8.17 nM with T47D and 6.74 nM in the assay with SK-N-MC.

Take `CCCO[C@H](C[C@H](C(C)C)N(CCC)C(=O)[C@@H](NC(=O)[C@@H](NC)[C@@H](C)CC)[C@@H](C)CC)c1nc(C(=O)N[C@@H](Cc2ccc(O)cc2)C[C@H](C)C(=O)O)cs1` [TAM599]: the IC50 in the assay on MDA-MB-468 amounted to 0.64 nM; with MCF7, 0.65 nM; with T47D, 1.22 nM; in the assay with SK-N-MC, 0.77 nM.

As for `CCCO[C@H](C[C@H](C(C)C)N(CCO)C(=O)[C@@H](NC(=O)[C@H]1CCCCN1C)[C@@H](C)CC)c1nc(C(=O)N[C@@H](Cc2ccc(O)cc2)C[C@H](C)C(=O)O)cs1` [TAM608], the IC50 with BT474 amounted to 1.69 nM; in the assay with MDA-MB-468, 2.24 nM; with MCF7 it was 4.06 nM; in the assay on SK-N-MC it was 1.54 nM.

In the case of `CCCO[C@H](C[C@H](C(C)C)N(CCC)C(=O)[C@@H](NC(=O)[C@H](NC)[C@@H](C)CC)[C@@H](C)CC)c1nc(C(=O)N[C@@H](Cc2ccc(O)cc2)C[C@H](C)C(=O)OC)cs1` [TAM609], the IC50 in the assay on BT474 worked out at 0.5 nM; in the assay with MDA-MB-468, 3.32 nM; in the assay with MCF7, 2.17 nM; in the assay with SK-N-MC it was 2.12 nM.

Turning to `CCCO[C@H](C[C@H](C(C)C)N(CCC)C(=O)[C@@H](NC(=O)[C@H](NC)[C@@H](C)CC)[C@@H](C)CC)c1nc(C(=O)N[C@@H](Cc2ccc(O)cc2)C[C@H](C)C(=O)O)cs1` [TAM610], the IC50 is 0.1 nM with BT474, 0.3 nM in the assay with MDA-MB-468, 0.2 nM with MCF7 and 0.1 nM in the assay on SK-N-MC.

As to `CC[C@H](C)[C@H](NC(=O)[C@H]1CCCCN1C)C(=O)N(COC(=O)CC(C)C)[C@H](C[C@@H](OC(C)=O)c1nc(C(=O)N[C@@H](Cc2ccc(O)cc2)C[C@H](C)C(=O)NCCS)cs1)C(C)C` [TAM674], the IC50 worked out at 19 nM with NCl-H1299, 8.7 nM in the assay with A2780 and 4.4 nM in the assay on HT29.

As for `CCCO[C@H](C[C@H](C(C)C)N(CCC)C(=O)[C@@H](NC(=O)[C@H]1CCCCN1C)[C@@H](C)CC)c1nc(C(=O)N[C@@H](Cc2ccccc2)C[C@H](C)C(=O)NN)cs1` [TPM320], the IC50 with BT474 is 11 nM; in the assay on SK-N-MC, 16 nM.

As a reminder, the IC50 is the concentration at which inhibition is half-maximal. High values mean a need for much substance, low ones inhibition by little substance.

The values are drawn from patent US10889616B2, “Cytotoxic tubulysin compounds for conjugation” (priority 2014, dated 2021).
